Read-outs that look alike come from different tables or passages of the source.
How the values were obtained:
[1] = biological target: T1, GDP-loaded KRAS4b (amino acids 1-169) G12C/C118S protein (Homo sapiens, UniProt P01116, C118S/G12C); assay: Covalent cysteine 12 modification by MALDI-TOF MS, GDP-loaded KRAS G12C; type: binding; conditions: 15 minutes reaction time point
T1 construct: KRAS4b (amino acids 1-169) G12C/C118S protein; made in house
Procedure, shortened: (§1)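 KRAS4b 1-169 G12C/C118S loaded with GDP, GppNHp or GTP was used at 1 μM in 20 mM HEPES, 150 mM NaCl, 1 mM MgCl2, pH 7.3, and incubated with compound (5 mM DMSO stock) at room temperature in the dark. % modification at 15 min is adduct peak height over total protein peak heights by linear-mode MALDI-TOF.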

[2] = biological target: T2, GTP-loaded KRAS4b (amino acids 1-169) G12C/C118S protein (Homo sapiens, UniProt P01116, C118S/G12C); assay: Covalent cysteine 12 modification by MALDI-TOF MS, GTP-loaded KRAS G12C; type: binding; conditions: 15 minutes reaction time point
T2 construct: KRAS4b (amino acids 1-169) G12C/C118S protein; made in house
Protocol: Reaction: 1 μM of GppNHp-, GTP-, or GDP-loaded KRAS4b (amino acids 1-169) G12C/C118S protein (produced in-house by Protein Expression Laboratory, FNLCR/Leidos Biomed) in 20 mM 4-(2-hydroxyethyl)-1-piperazineethanesulfonic acid (HEPES) buffer containing 150 mM NaCl, 1 mM MgCl2, pH 7.3 was prepared freshly before assay. Ten-μL aliquots of protein were dispensed onto low volume 384-well plate, then 375 nL DMSO, and 25 nL of tested compounds from 5 mM DMSO stocks were added to appropriate wells using ECHO 555 acoustic liquid handler (Labcyte Inc.). For each reaction/assay, three blanks were prepared by mixing 10 μL of protein solution with 400 nL DMSO. The contents of the wells were carefully mixed by aspiration, and then each plate was sealed with an adhesive cover, centrifuged at 2000 g for 1 minute, and kept in the dark at room temperature until 5 min, 15 min, 30 min, or 2 h collections.
Target pretreatment: Before each assay MALDI target (Bruker MPT 384 ground steel BC) was pre-treated by pipetting on each spot 0.75 μL of saturated sinapinic acid in acetonitrile (ACN).
Sample preparation: At collection time point, 2 μL of reaction mixtures were pipetted out into 20 μL MALDI matrix solution (saturated solution of sinapinic acid in 1:1 ACN:water solution containing 0.75% trifluoroacetic acid (TFA)) deposited on 384 well polypropylene plate. Resulting solution was mixed by aspiration, centrifuged at 2000 g for 1 minute, then 1 μL aliquots were dispensed on pre-treated MALDI target using Beckman Coulter Biomek FXP 96/384-Span-8 Laboratory Automation Workstation. Finally, the MALDI target was dried under mild vacuum to produce spots with fine crystalline structure.
Measurements: MALDI-TOF measurements were performed on a Bruker Daltonics rapiflex Tissuetyper TOF-TOF mass spectrometer using linear mode and mass range from 18.6 to 21.6 kDa. Detector gain was set to 3.3× (483 V), sample rate to 5 GS/s, real time smoothing to medium (175 MHz), laser smart beam pattern was set to: “MS Thin Layer M5”, and the laser frequency was 10000 Hz. Spectra were automatically collected using custom Auto Xecute method. Laser power was auto adjusted using fuzzy control. The peak selection range was set to be between 19000 and 21500 Da. Peak evaluation uses half width parameter set to be smaller than 40 Da for processed spectrograms (centroid peak detection; smoothed by SavitzkyGolay algorithm using 7 m/z width and 2 cycles; baseline was subtracted using median algorithm with flatness 1 and median level 0.01). Fuzzy control used Proteins/Oligonucleotides protocol with minimum half width 1/10 times above threshold. Up to 40000 satisfactory shots were collected in 10000 shot steps. Dynamic termination was implemented to finish data collection when peak signal/noise ratio was reaching value of 50.
Spectra processing: Spectra were smoothed by SavitzkyGolay algorithm using 7 m/z width and three cycles. Centroid peak detection algorithm was used with signal to noise threshold set to 6, relative intensity threshold 4%, peak width 10 m/z and median baseline subtraction using flatness of 1 and median level of 0.01. Peak intensity and area under the peak were evaluated and recorded for all peaks between 19,300 Da and 21,550 Da.
Calculation of percent modification: Percent modification was calculated as a ratio of peak height for protein modified by compound to sum of peak height of remaining protein plus peak height for protein modified by compound. If multiple modifications were observed each was calculated as a ratio of peak height for given modification versus sum of peak heights for all observed protein species. Data reported in Table 5 are from 15 minutes reaction time point.

[3] = biological target: T3, Avi-KRAS G12C (1-169) GppNHp/RAF1 RBD-3×FLAG (52-151) (Homo sapiens, UniProt P01116, G12C); assay: Raf1 RBD-KRAS G12C-GppNHp disruption (protein:protein interaction HTRF assay); type: biochemical
T3 construct: Avi-KRAS G12C (1-169) GppNHp/RAF1 RBD-3×FLAG (52-151)
Procedure, shortened: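 HTRF measuring disruption of 50 nM Avi-KRAS G12C (1-169) loaded with GppNHp binding RAF1 RBD-3×FLAG (52-151), in pH 7.5 Tris buffer with 5 mM MgCl2, 0.1% BSA, 10% DMSO. KRAS preincubated with compound 1 h, then RBD 1 h, then detection reagents 1 h, all at room temperature. Compound titration 30-0.02 μM; activity expressed as percent of DMSO control.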

[4] = tested on: pERK in NCI-H358 cells; assay: Cell-based pERK HTRF assay; conditions: 30 min incubation, read-out: pERK in NCI-H358 cell inhibition IC50
Procedure, shortened: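 Cells seeded at 4×10^4/well in RPMI with 10% FBS, then next day treated for 30 min with a 9-point, 3-fold series from 75 μM top concentration at 0.25% DMSO. Lysates were read for pERK by HTRF (d2/Eu cryptate antibodies) after 4–24 h at room temperature, emission at 615 nm.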

[5] = biological target: T4, GppNHp-loaded KRAS4b (amino acids 1-169) G12C/C118S protein (Homo sapiens, UniProt P01116, C118S/G12C); assay: Covalent cysteine 12 modification by MALDI-TOF MS, GppNHp-loaded KRAS G12C; type: binding; conditions: 15 minutes reaction time point
T4 construct: KRAS4b (amino acids 1-169) G12C/C118S protein; made in house
Procedure, shortened: as §1

| Compound | GDP-KRAS G12C percent of modification [1] | GTP-KRAS G12C percent of modification [2] | IC50 [3] [nM] | IC50 ([4]; Homo sapiens, NCI-H358, 0.5 h) [nM] | GppNHp-KRAS G12C percent of modification [5] | IC50 [4] [nM] |
| --- | --- | --- | --- | --- | --- | --- |
| C=CC(=O)N1CC[C@@H](Oc2nc(OC[C@@]34CCCN3C[C@H](F)C4)nc3c(Cl)c(-c4ccc(F)c5sc(N)nc45)c(C(F)(F)F)cc23)C1 (atropisomer, axis not shown) [Compound 44] | A (percent of modification ≥70%) | B (50≤percent of modification <70%) | ≤ 500 | ≤ 100 | A (percent of modification ≥70%) |  |
| C=CC(=O)N1C[C@H](Oc2nc(OC[C@@]34CCCN3C[C@H](F)C4)nc3c(F)c(-c4ccc(F)c5sc(N)c(C#N)c45)c(C(F)(F)F)cc23)C[C@@H]1COC (atropisomer, axis not shown) [Compound 85] | C (10%≤modification <50%) | C (10%≤modification <50%) | ≤ 500 |  | C (10%≤modification <50%) | ≤ 100 |
| C=CC(=O)N1C[C@H](Oc2nc(OC[C@@]34CCCN3C[C@H](F)C4)nc3c(F)c(-c4ccc(F)c5sc(N)c(C#N)c45)c(C(F)(F)F)cc23)C[C@@H]1COC (atropisomer, axis not shown) [Compound 86] | D (percent of modification <10%) | D (percent of modification <10%) | 5000 to 20000 |  | D (percent of modification <10%) | > 1000 |
| C=CC(=O)N1C[C@H](Oc2nc(OC[C@@]34CCCN3C[C@H](F)C4)nc3c(F)c(-c4ccc(F)c5sc(N)c(C#N)c45)c(C(F)(F)F)cc23)C[C@H]1COC (atropisomer, axis not shown) [Compound 89] | A (percent of modification ≥70%) | B (50≤percent of modification <70%) | ≤ 500 |  | B (50≤percent of modification <70%) | ≤ 100 |
| C=CC(=O)N1C[C@H](Oc2nc(OC[C@@]34CCCN3C[C@H](F)C4)nc3c(F)c(-c4ccc(F)c5sc(N)nc45)c(C(F)(F)F)cc23)[C@@H](F)C1 [Compound 28, 1-((3S,4S)-3-((7-(2-amino-7-fluorobenzo[d]thiazol-4-yl)-8-fluoro-2-(((2R,7aS)-2-fluorotetrahydro-1H-pyrrolizin-7a (5H)-yl)methoxy)-6-(trifluoromethyl)quinazolin-4-yl)oxy)-4-fluoropyrrolidin-1-yl) prop-2-en-1-one] | A (percent of modification ≥70%) |  | ≤ 500 | ≤ 100 | A (percent of modification ≥70%) |  |
| C=CC(=O)N1CC[C@@H](Oc2nc(OC[C@@]34CCCN3C[C@H](F)C4)nc3c(F)c(-c4ccc(F)c5sc(N)nc45)c(C(F)(F)F)cc23)[C@H]1C [Compound 29, 1-((2R,3R)-3-((7-(2-amino-7-fluorobenzo[d]thiazol-4-yl)-8-fluoro-2-(((2R,7aS)-2-fluorotetrahydro-1H-pyrrolizin-7a (5H)-yl)methoxy)-6-(trifluoromethyl)quinazolin-4-yl)oxy)-2-methylpyrrolidin-1-yl) prop-2-en-1-one] | A (percent of modification ≥70%) |  | ≤ 500 | ≤ 100 | A (percent of modification ≥70%) |  |
| C=CC(=O)N1CC(Oc2nc(OC[C@@]34CCCN3C[C@H](F)C4)nc3c(F)c(-c4ccc(F)c5sc(N)nc45)c(C(F)(F)F)cc23)[C@@H](C)C1 (stereo partly shown) [Compound 34] | A (percent of modification ≥70%) |  | ≤ 500 | ≤ 100 | B (50≤percent of modification <70%) |  |
| C=CC(=O)N1CC(Oc2nc(OC[C@@]34CCCN3C[C@H](F)C4)nc3c(F)c(-c4ccc(F)c5sc(N)nc45)c(C(F)(F)F)cc23)[C@@H](C)C1 (stereo partly shown) [Compound 35] | C (10%≤modification <50%) |  | 500 to 5000 |  | D (percent of modification <10%) | 100 to 1000 |
| C=CC(=O)N1CC[C@@H](Oc2nc(OC[C@@]34CCCN3C[C@H](F)C4)nc3c(F)c(-c4ccc(F)c5oc(N)nc45)c(C(F)(F)F)cc23)C1 [Compound 36, 1-((3R)-3-((7-(2-amino-7-fluorobenzo[d]oxazol-4-yl)-8-fluoro-2-(((2R,7aS)-2-fluorotetrahydro-1H-pyrrolizin-7a (5H)-yl)methoxy)-6-(trifluoromethyl)quinazolin-4-yl)oxy)pyrrolidin-1-yl) prop-2-en-1-one] | C (10%≤modification <50%) |  | ≤ 500 | ≤ 100 | C (10%≤modification <50%) |  |
| C=CC(=O)N1C[C@@H](F)[C@@H](Oc2nc(OC[C@@]34CCCN3C[C@H](F)C4)nc3c(F)c(-c4ccc(F)c5sc(N)nc45)c(C(F)(F)F)cc23)C1 [Compound 40, 1-((3S,4R)-3-((7-(2-amino-7-fluorobenzo[d]thiazol-4-yl)-8-fluoro-2-(((2R,7aS)-2-fluorotetrahydro-1H-pyrrolizin-7a (5H)-yl)methoxy)-6-(trifluoromethyl)quinazolin-4-yl)oxy)-4-fluoropyrrolidin-1-yl) prop-2-en-1-one] | A (percent of modification ≥70%) |  | ≤ 500 | ≤ 100 | A (percent of modification ≥70%) |  |
| C=CC(=O)N1CC[C@@H](Oc2nc(OC[C@@]34CCCN3C[C@H](F)C4)nc3c(F)c(-c4ccc(F)c5sc(N)nc45)ncc23)C1 [Compound 43] | A (percent of modification ≥70%) |  | 500 to 5000 | > 1000 | C (10%≤modification <50%) |  |
| C=CC(=O)N1CC[C@@H](Oc2nc(OC[C@@]34CCCN3C[C@H](F)C4)nc3cc(-c4ccc(F)c5sc(N)c(C#N)c45)c(F)cc23)[C@H]1C [Compound 109] | A (percent of modification ≥70%) | C (10%≤modification <50%) |  | ≤ 100 | B (50≤percent of modification <70%) |  |
